Results taken from patent US20050282824A1, “Substituted pyrimidines as inhibitors of bacterial type III protein secretion systems” (priority 2004, published 2005).

tested on: Type III protein secretion of ExoU by P. aeruginosa PA103; test: Tertiary assay: Type III-dependent secretion of ExoU by P. aeruginosa PA103; assay type: cell-based; conditions: Pseudomonas aeruginosa, read-out: ExoU IC50(uM)
From the text: Tertiary assay: inhibition of Type III protein secretion of effectors from a Pseudomonas aeruginosa system. Type III protein secretion is used by P. aeruginosa to secrete several essential virulence determinants. One effector of the type III protein secretion system of P. aeruginosa PA 103 is the virulence determinants ExoU.
The amount of Type III-dependent secretion of ExoU by P. aeruginosa PA103 can be determined in a cell-based assay by quantification of the 73.9 kDa ExoU protein secreted into the extracellular medium. Such quantitation can be achieved by growing strain PA 103 in a deferrated medium in the presence of nitrilotriacetic acid (an inducer of Type III protein secretion in P. aeruginosa) and either in the presence or absence of putative inhibitors. After a prolonged growth period, the cells are sedimented and the supernatants concentrated by ammonium sulfate precipitation. The proteins in the resuspended pellets are separated by electrophoresis on SDS-polyacrylamide gels. After staining gels with Colloidal Blue™, the 73.9 kDa ExoU band is quantitated by scanning through an imager. The effects of inhibitors on the intensity of the ExoU band may be measured relative to that of untreated controls.

Structure (SMILES) | IC50
O=C(N[C@H](Cc1ccc(Cl)cc1)C(=O)O)c1cc(N2CCCCC2)nc(-c2ccc(-c3ccccc3)cc2)n1 [Compound 34, (R)-2-[(2-Biphenyl-4-yl-6-piperidin-1-yl-pyrimidine-4-carbonyl)amino]-3-(4-chlorophenyl)propionic acid] | 71 µM
O=C(NC(Cc1ccc(Cl)cc1)C(=O)O)c1cc(N2CCC(Cc3ccccc3)CC2)nc(-c2ccc(Cl)cc2)n1 (stereo not drawn) [Compound 79, 2-{[6-(4-Benzylpiperidin-1-yl)-2-(4-chlorophenyl)pyrimidine-4-carbonyl]amino}-3-(4-chlorophenyl)propionic acid] | 64 µM
O=C(N[C@@H](CSCc1ccccc1)C(=O)O)c1cc(N2CCN(c3ccccn3)CC2)nc(-c2ccoc2)n1 [Compound 72, (R)-3-Benzylsulfanyl-2-{[2-furan-3-yl-6-(4-pyridin-2-yl-piperazin-1-yl)pyrimidine-4-carbonyl]amino}propionic acid] | > 50 µM
CN(C)c1ccc(-c2nc(C(=O)NC(Cc3ccc(Cl)cc3)C(=O)O)cc(N3CCN(c4ccccn4)CC3)n2)cc1 (stereo not drawn) [Compound 70, 3-(4-Chlorophenyl)-2-{[2-(4-dimethylaminophenyl)-6-(4-pyridin-2-yl-piperazin-1-yl)pyrimidine-4-carbonyl]amino}propionic acid] | 29.8 µM
O=C(N[C@@H](CSCc1ccccc1)C(=O)O)c1cc(N2CCN(c3ccccn3)CC2)nc(N2CCN(c3ccccn3)CC2)n1 [Compound 66, (R)-3-Benzylsulfanyl-2-{[2,6-bis-(4-pyridin-2-yl-piperazin-1-yl)pyrimidine-4-carbonyl]amino}propionic acid] | 52.8 µM
O=C(N[C@@H](CSCc1ccccc1)C(=O)O)c1cc(N2CCC(Cc3ccccc3)CC2)nc(-c2ccc(Cl)cc2)n1 [Compound 78, (R)-2-{[6-(4-Benzylpiperidin-1-yl)-2-(4-chlorophenyl)pyrimidine-4-carbonyl]-amino}-3-benzylsulfanylpropionic acid] | 42.4 µM
CN(C)c1ccc(-c2nc(C(=O)N[C@@H](COCc3ccccc3)C(=O)O)cc(N3CCN(c4ccccn4)CC3)n2)cc1 [Compound 69, (S)-3-Benzyloxy-2-{[2-(4-dimethylaminophenyl)-6-(4-pyridin-2-yl-piperazin-1-yl)-pyrimidine-4-carbonyl]amino}propionic acid] | > 100 µM
O=C(N[C@H](Cc1ccc(Cl)cc1)C(=O)O)c1cc(N2CCCc3ccccc32)nc(-c2ccc(-c3ccccc3)cc2)n1 [Compound 33, (R)-2-{[2-Biphenyl-4-yl-6-(3,4-dihydro-2H-quinolin-1-yl)pyrimidine-4-carbonyl]amino}-3-(4-chlorophenyl)propionic acid] | 24.4 µM
CN1CCN(c2cc(C(=O)N[C@@H](COCc3ccccc3)C(=O)O)nc(N3CCN(c4ccccn4)CC3)n2)CC1 [Compound 76, (S)-3-Benzyloxy-2-{[6-(4-methyl-piperazin-1-yl)-2-(4-pyridin-2-yl-piperazin-1-yl)-pyrimidine-4-carbonyl]amino}propionic acid] | > 50 µM
CN1CCN(c2cc(C(=O)N[C@@H](CSCc3ccccc3)C(=O)O)nc(N3CCN(c4ccccn4)CC3)n2)CC1 [Compound 75, (R)-3-Benzylsulfanyl-2-{[6-(4-methyl-piperazin-1-yl)-2-(4-pyridin-2-yl-piperazin-1-yl)pyrimidine-4-carbonyl]amino}propionic acid] | > 100 µM
CC1CCN(c2nc(C(=O)N[C@@H](CSCc3ccccc3)C(=O)O)cc(N3CCN(c4ccccn4)CC3)n2)CC1 [Compound 64, (R)-3-Benzylsulfanyl-2-{[2-(4-methylpiperidin-1-yl)-6-(^4-pyridin-2-yl-piperazin-1-yl)pyrimidine-4-carbonyl]amino}propionic acid] | 18.9 µM
O=C(NC(Cc1ccc(Cl)cc1)C(=O)O)c1cc(N2CCN(c3ccccn3)CC2)nc(-c2ccc([N+](=O)[O-])cc2)n1 (stereo not drawn) [Compound 68, 3-(4-Chlorophenyl)-2-{[2-(4-nitrophenyl)-6-(4-pyridin-2-yl-piperazin-1-yl)-pyrimidine-4-carbonyl]amino}propionic acid] | 21.1 µM
Cc1cc(C(=O)N[C@@H](CSCc2ccccc2)C(=O)O)nc(N2CCC(c3ccccc3)CC2)n1 [Compound 2, (R)-3-Benzylsulfanyl-2-{[6-methyl-2-(4-phenylpiperidin-1-yl)pyrimidine-4-carbonyl]amino}propionic acid] | > 100 µM
CC1CCN(c2cc(C(=O)N[C@@H](CSCc3ccccc3)C(=O)O)nc(N3CCN(c4ccccn4)CC3)n2)CC1 [Compound 74, (R)-3-Benzylsulfanyl-2-{[6-(4-methylpiperidin-1-yl)-2-(4-pyridin-2-yl-piperazin-1-yl)pyrimidine-4-carbonyl]amino}propionic acid] | > 50 µM
O=C(NC(Cc1ccc(Cl)cc1)C(=O)O)c1cc(N2CCN(c3ccccn3)CC2)nc(N2CCN(c3ccccn3)CC2)n1 (stereo not drawn) [Compound 67, 2-{[2,6-Bis-(4-pyridin-2-yl-piperazin-1-yl)pyrimidine-4-carbonyl]amino}-3-(4-chlorophenyl)propionic acid] | 65.6 µM
O=C(N[C@@H](CSCc1ccccc1)C(=O)O)c1cc(N2CCC(Cc3ccccc3)CC2)nc(-c2ccc(C(F)(F)F)cc2)n1 [Compound 77, (R)-2-{[6-(4-Benzylpiperidin-1-yl)-2-(4-trifluoromethylphenyl)pyrimidine-4-carbonyl]amino}3-benzylsulfanylpropionic acid] | 92.8 µM
O=C(N[C@@H](COCc1ccccc1)C(=O)O)c1cc(N2CCN(c3ccccn3)CC2)nc(-c2ccoc2)n1 [Compound 73, (S)-3-Benzyloxy-2-{[2-furan-3-yl-6-(4-pyridin-2-yl-piperazin-1-yl)pyrimidine-4-carbonyl]amino}propionic acid] | > 50 µM
O=C(N[C@@H](COCc1ccccc1)C(=O)O)c1cc(N2CCN(c3ccccn3)CC2)nc(-c2cccs2)n1 [Compound 71, (S)-3-Benzyloxy-2-{[6-(4-pyridin-2-yl-piperazin-1-yl)-2-thiophen-2-yl-pyrimidine-4-carbonyl]amino}propionic acid] | > 50 µM
O=C(N[C@@H](COCc1ccccc1)C(=O)O)c1cc(N2CCN(c3ccccn3)CC2)nc(N2CCN(c3ccccn3)CC2)n1 [Compound 65, (S)-3-Benzyloxy-2-{[2,6-bis-(4-pyridin-2-yl-piperazin-1-yl)pyrimidine-4-carbonyl]-amino}propionic acid] | 38.4 µM

tested on: SPI1 type III protein secretion of SopE'-'Bla by Salmonella enterica; test: Primary assay: Type III protein secretion of the chimeric SopE'-'Bla polypeptide by Salmonella enterica; assay type: cell-based; conditions: read-out: SopE IC50(uM)
From the text: Primary assay: Type III protein secretion of the chimeric SopE′-′Bla polypeptide by Salmonella enterica. This procedure is a cell-based assay that measures the type III-dependent secretion by Salmonella enterica of a plasmid-encoded chimeric polypeptide whose synthesis can be regulated, and which is endowed with an enzymatic activity that can be monitored […] by hydrolysis of a substrate that is unable to penetrate into the bacterial cytoplasm within the time constraints of the reaction. Thus, the colorimetric reaction is not influenced by SopE′-′Bla polypeptide in the bacterial cytoplasm. Instead, it effectively measures the amount of polypeptide that has been secreted from the S. enterica cytoplasm to the extracellular medium via type III system protein secretion.
The SopE′-′Bla recombinant polypeptide consists of two functionally distinct domains spliced together. The N-terminus domain is encoded by a polynucleotide region specifying the signal for type III secretion of the SopE polypeptide of S. enterica, an effector of the SPI1 type III protein secretion system. The C-terminus domain of SopE′-′Bla consists of a 263 amino acid peptide sequence that corresponds to the TEM-1 β-lactamase expressed by plasmid pBR322 but without its N-terminal signal sequence. The TEM-1 β-lactamase part of the SopE′-′Bla chimeric polypeptide is used as a reporter enzyme. It is capable of hydrolyzing nitrocefin resulting in a product whose accumulation can be monitored by colorimetric detection. The secretion of the SopE′-′Bla chimeric polypeptide from the cytoplasm to the extracellular medium is dependent on type III protein secretion.
For this procedure, cells grown under conditions known to favor a functional SPI1 secretion system are induced for expression of the SopE′-′Bla protein and grown either in the presence or in the absence of putative inhibitors for determined time. Nitrocefin is then added to the various cultures and its hydrolysis are used for quantitation. An inhibitor of Type III protein secretion is generally a compound that reduces the signal of the enzymatic reaction by decreasing the amount of SopE′-′Bla secreted into the extracellular medium.

Structure (SMILES) | IC50
O=C(N[C@H](Cc1ccc(Cl)cc1)C(=O)O)c1cc(N2CCc3ccccc3C2)nc(Cl)n1 [Compound 5, (R)-2-{[2-Chloro-6-(3,4-dihydro-1H-isoquinolin-2-yl)pyrimidine-4-carbonyl]amino}-3-(4-chlorophenyl)propionic acid] | 32.7 µM
O=C(N[C@H](Cc1ccc(Cl)cc1)C(=O)O)c1cc(N2CCc3ccccc3C2)nc(-c2ccc(F)cc2)n1 [Compound 9, (R)-3-(4-Chlorophenyl)-2-{[6-(3,4-dihydro-1H-isoquinolin-2-yl)-2-(4-fluoro-phenyl)Pyrimidine-4-carbonyl]amino}propionic acid] | 8 µM
CN1CCN(c2nc(C(=O)N[C@@H](COCc3ccccc3)C(=O)O)cc(N3CCN(c4nccc(C(F)(F)F)n4)CC3)n2)CC1 [Compound 45, (S)-3-Benzyloxy-2-({2-(4-methyl-piperazin-1-yl)-6-[4-(4-trifluoromethylpyrimidin-2-yl)piperazin-1-yl]pyrimidine-4-carbonyl}amino)propionic acid] | 60.7 µM
O=C(N[C@@H](CSCc1ccccc1)C(=O)O)c1cc(N2CCCCC2)nc(N2CCC(c3ccccc3)CC2)n1 [Compound 29, (R)-3-Benzylsulfanyl-2-{[2-(4-phenylpiperidin-1-yl)-6-piperidin-1-yl-pyrimidine-4-carbonyl]amino}propionic acid] | 3.2 µM
Cc1cc(C(=O)N[C@@H](CSCc2ccccc2)C(=O)O)nc(N2CCC(c3ccccc3)CC2)n1 [Compound 2, (R)-3-Benzylsulfanyl-2-{[6-methyl-2-(4-phenylpiperidin-1-yl)pyrimidine-4-carbonyl]amino}propionic acid] | 34.2 µM
